The results in this text go back to ChEMBL document CHEMBL3507680, “University of Dundee, Gates Library screen for HepG2 cell viability”.

SMILES strings stand for the structures.

The nature of this series: Human HepG2 cell viability assay in 384 well format. The conditions noted are these: HepG2 cells, read-out: Inhibition. Also noted: dose 125 nL, time 70.5 hour; concentration not given beside the values. It counts as toxicity, cell-based.
With `Cn1cc(CN2CCn3cc(CNC(=O)c4cccn4C)nc3C2)cn1`, the cytotoxicity at 70.5 h is -2.17%.
As for `NC(=O)NCC(=O)N1CCCC(OCc2cccnc2)C1` (stereo not given), the figure is 47.2%; as for `CC(=O)c1ccc(S(=O)(=O)N2CCOC(Cn3ccnc3)C2)cc1` (stereo not given), -7.46%.
As for `Cc1cccc(CN2CCc3onc(CN(C)C)c3C2)n1`, the figure is 0.439%; as for `CO[C@H]1COCCN(C(=O)c2ccc(C(F)(F)F)cc2)C1`, -4.56%; as for `O=C1NCCCCC1NC(=O)N1CCCc2ccccc21` (stereo not given), -12.7%.
As for `NS(=O)(=O)c1cccnc1Nc1c(Cl)cccc1Cl`, the figure is 14%; as for `Cc1nc(C)n(C2CCCN(C(=O)c3cn4c(C)cccc4n3)C2)n1` (stereo not given), 19.8%.
For `N#CCCNC(=O)CN1CC(n2cccn2)C1`, the cytotoxicity at 70.5 h was -1.56%.
As for `CN(C)C(CNC(=O)c1cccc(-n2cnnn2)c1)c1ccccc1Cl` (stereo not given), the figure is -2.81%; as for `COc1cc(CC2CC(c3ccc4c(c3)OCO4)=NO2)cc2c1OCO2` (stereo not given), -9.64%; as for `CCc1ccc(-c2cn3c(C(=O)N[C@H](C(N)=O)[C@@H](C)O)csc3n2)cc1`, 15.1%.
As for `Cc1nnc(NCc2ccccc2S(=O)(=O)N(C)C)c(C#N)c1C`, the figure is 0.114%; as for `NC(=O)[C@H]1CCCN(c2nccc(-c3ccncc3)n2)C1`, -0.804%; as for `CCNC(c1ccc(C)cc1)c1cccnc1` (stereo not given), 0.38%.
As to `Cc1cc(C)n(Cc2cc(C(=O)N3CCCC3c3nccs3)n[nH]2)n1` (stereo not given), the cytotoxicity at 70.5 h is -13.2%.
As for `CC1(C(=O)N2CCN(c3cnccn3)CC2)CNCCO1` (stereo not given), the figure is 28.1%; as for `Cc1cc(C2CCCN(CCC(=O)N3CCc4ccccc43)C2)n[nH]1` (stereo not given), -4.23%.
For `O=C(CN1CCCCC1Cn1cncn1)NCCc1ccsc1` (stereo not given), the cytotoxicity at 70.5 h worked out at 9.35%.
`CCc1[nH]ncc1C(=O)N1CCN(c2nccc(OC)n2)CC1`: the cytotoxicity at 70.5 h is -3.61%.
As for `CN(Cc1ccsc1)Cc1nc(-c2cnccn2)no1`, the figure is -6.12%.
As to `CCc1cnc(CN(C)C2CCN(c3sccc3C#N)C2=O)s1` (stereo not given), the cytotoxicity at 70.5 h came out at 13.4%.
As for `Cc1noc(C)c1CN(C)C(=O)NC(C)Cc1ccco1` (stereo not given), the figure is -1.49%.
Consider `CC(NCc1ccco1)c1nnc2n1CCCC2` (stereo not given), for which the cytotoxicity at 70.5 h was -5.13%.
Turning to `CC(C)n1cc(S(=O)(=O)NCCc2nnc3ccccn23)cn1`, the cytotoxicity at 70.5 h stood at 5.41%.
As for `COCC1c2nnn(CC3CC3)c2CCN1C(=O)c1cccc(F)c1` (stereo not given), the cytotoxicity at 70.5 h was -6.77%.
As to `CC(C)c1cccc(NC(=O)Cn2c(=O)n(C)c(=O)c3sccc32)c1`, the cytotoxicity at 70.5 h was 5.39%.
For `COc1ccc2c(c1)CC(C(=O)N(C)CCCc1cnn(C)c1)CO2` (stereo not given), the cytotoxicity at 70.5 h was -8.48%.
As for `O=C(N1CCCO1)[C@@]12CCO[C@@H]1CCN(C1CCCCC1)C2`, the figure is 14%; as for `CCc1nc(C)c(C(=O)NCCNC(=O)c2cccs2)s1`, 15.7%.
Consider `CC(C)(C)n1cc(C2=CCN(CCNC(N)=O)CC2)cn1`, for which the cytotoxicity at 70.5 h is -0.0754%.
With `N#Cc1ccc(-c2nnc(CSCCN3CCOCC3)o2)cc1`, the cytotoxicity at 70.5 h was -5.77%.
For `O=C(O)c1cn(-c2ccccn2)c(=O)c2ccccc12`, the cytotoxicity at 70.5 h is -11.1%.
As for `Cc1ncsc1CN1CCn2c(COCC3CC3)cnc2C1C` (stereo not given), the cytotoxicity at 70.5 h was -2.63%.
With `O=C(NC1CC1)C1CCCN(c2cc(-n3cncn3)ncn2)C1` (stereo not given), the cytotoxicity at 70.5 h was 13.5%.
As to `CN(C)CCNc1cc(-c2ccc[nH]c2=O)c2cc[nH]c2n1`, the cytotoxicity at 70.5 h is -5.94%.
As for `CCn1ccnc1CN(C)C1CCCN(CCc2ccccc2)C1` (stereo not given), the figure is 1.27%; as for `COc1cc(-c2cccc3c2OC(CN)C3)cc(OC)c1OC` (stereo not given), -1.4%.
`Cc1ccccc1C(=O)NCCC(=O)NS(=O)(=O)c1cccnc1`: the cytotoxicity at 70.5 h is 19.3%.
For the compound `Cc1nc(CC(=O)N2CCCC2c2nc(-c3ccccc3)no2)cs1` (stereo not given), the cytotoxicity at 70.5 h was -3.06%.
For `Cn1nc(COc2cccnc2)c2c1CCN(Cc1ccco1)C2`, the cytotoxicity at 70.5 h is 4.18%.
With `Cn1nccc1-c1ccc2nc(C3CCNCC3)nn2c1`, the cytotoxicity at 70.5 h turned out to be 10.5%.
In the case of `CCN(CCO)C(=O)Nc1ccc(OCCOC)nc1`, the cytotoxicity at 70.5 h is 2.78%.
Regarding `CCOc1ccc(CN2C(=O)CC3(CCCC3)C2=O)nc1`, the cytotoxicity at 70.5 h stood at 17.6%.
As for `CCCSc1nc(O)c(CC)c(=O)n1-c1ccccc1`, the figure is -6.46%.
`CCC(O)Cn1cc(C2=CCN(Cc3ccc(OC)cc3)CC2)cn1` (stereo not given): the cytotoxicity at 70.5 h was -11.9%.
For the compound `COc1ccc2c3c1CN(S(C)(=O)=O)CC3=CC(C)(C)CO2`, the cytotoxicity at 70.5 h is -6.24%.
On to `CCc1cc(CN(C)Cc2nc(-c3ccc(OC)cc3F)oc2C)on1`, for which the cytotoxicity at 70.5 h was -5.4%.
As for `O=C(NCC1CC1)C1CSCN1S(=O)(=O)c1cc(F)cc(F)c1` (stereo not given), the figure is -15.2%; as for `CN(C)CC1CN(Cc2coc(-c3ccccc3)n2)CCO1` (stereo not given), -5.29%; as for `O=C(Cn1cc(C2CC2)nn1)N(Cc1ccco1)Cc1cccs1`, -2.55%.
As for `CN1CC[C@@H]2[C@@H](CO[C@H]2CNC(=O)c2nccn2C)C1`, the figure is -4.99%; as for `CC(C)c1cc(C2CCCN2C(=O)CN2C(=O)OC(C)(C)C2=O)no1` (stereo not given), -9.43%; as for `CN1CC(=O)N(c2cccc(F)c2)CC12CCN(CC1CC1)C2` (stereo not given), -3.68%.
`Cc1nc(C(=O)N2CC(C)Sc3ccccc32)cs1` (stereo not given): the cytotoxicity at 70.5 h is -7.31%.
As for `CN1CCCC1CCn1ccnc1-c1nc(-c2ccccc2)no1` (stereo not given), the figure is 16.5%; as for `CN1CCCN(C(=O)NCCNc2ncccc2C#N)CC1`, -2.49%; as for `O=C(Cc1csc(Cc2ccccn2)n1)NCCCN1CCCC1=O`, 32.1%.
As for `Cc1cccc(OC2CCN(C(=O)Cn3ccc4ccccc43)CC2)n1`, the cytotoxicity at 70.5 h was -6.3%.
As to `Cc1cc(C)cc(Nc2nc(C)cc(=O)n2CC(=O)NC(C)C)c1`, the cytotoxicity at 70.5 h was -5.12%.
For the compound `CCC(NCc1ccccc1)c1ccccc1OCC(=O)NC` (stereo not given), the cytotoxicity at 70.5 h was -6.53%.
Take `COc1ccc(N(Cc2ccco2)C(=O)C2CCCO2)cc1F` (stereo not given): the cytotoxicity at 70.5 h was -2.54%.
In the case of `C=Cn1cc(CN2CCC(c3ncc(Cl)cc3S(C)(=O)=O)CC2)c(C)n1`, the cytotoxicity at 70.5 h is -3.31%.
As for `COCC(=O)N1CCC(C(=O)c2cc(C)cnc2N)CC1`, the cytotoxicity at 70.5 h is -1.24%.
As for `O=c1[nH]c(N2CCOCC2)nc2c1CN(Cc1cccnc1)CC2`, the figure is 0.495%; as for `CN(C)c1cncc(C2CCN(CCO)CC2)n1`, -8.74%.
For the compound `Nc1ncc(-c2cccc(NC(=O)[C@@H]3CCCCN3)c2)cn1`, the cytotoxicity at 70.5 h is -4.27%.
For the compound `Clc1cccc(-n2cnnn2)c1N1CCCCC1`, the cytotoxicity at 70.5 h amounted to 29.1%.
As for `Cc1nn(C)c2nc(N(Cc3ccncc3)CC3CCCO3)sc12` (stereo not given), the figure is -5.1%.
Regarding `Cn1c(=O)n(C)c2cc(NS(=O)(=O)Cc3cccc(F)c3)ccc21`, the cytotoxicity at 70.5 h is -6.9%.
On to `COc1ccc2c(c1)C(=O)CC1(CCN(Cc3ccc(F)cc3)CC1)O2`, for which the cytotoxicity at 70.5 h came to 21.7%.
`Clc1ccc(C2NCCc3cc4c(cc32)OCCO4)cc1` (stereo not given): the cytotoxicity at 70.5 h came to 32.9%.
Consider `O=C(c1csc(-c2cccs2)n1)N1CCCC1Cn1cccn1` (stereo not given), for which the cytotoxicity at 70.5 h is -18.2%.
In the case of `COCC(=O)N1CCc2ccc(=O)n(CC3CC3)c2CC1`, the cytotoxicity at 70.5 h is -2.86%.
Turning to `Cc1nn(C)c(C)c1CCC(=O)N1CCN(CCn2cncn2)CC1`, the cytotoxicity at 70.5 h amounted to 14.9%.
With `CC(=O)NCc1cc2n(n1)CCN(Cc1cccc(Cl)c1F)C2`, the cytotoxicity at 70.5 h stood at 36.9%.
In the case of `O=C(c1ccnnc1)N1C[C@H](OCC2CCOCC2)[C@H]2OCCC[C@H]21`, the cytotoxicity at 70.5 h worked out at 0.563%.
On to `Cc1cc(C)n(CC2CCCCN2CC(=O)Nc2nccs2)n1` (stereo not given), for which the cytotoxicity at 70.5 h is -5.53%.
For the compound `CNc1ccc(C(=O)N(C)Cc2ccc3ccccc3n2)cn1`, the cytotoxicity at 70.5 h is -8.44%.
As for `Cc1cc(C)cc(OCC(=O)NC2CCN(S(C)(=O)=O)CC2)c1`, the figure is 23.8%; as for `Cc1cccnc1CN1CC[C@@](C)(O)[C@H](Oc2ccccc2)C1`, -7.26%; as for `COc1ccc2c(c1)CCN2Cc1nc2c(cnn2C)c(=O)[nH]1`, -9.79%.
Take `COC(=O)C1=NN2C(=NS(=O)(=O)c3ccccc32)N1`: the cytotoxicity at 70.5 h is -89.7%.
On to `COc1cc(CN2CCCC(Nc3cccc(F)c3)C2)cc(Cl)c1O` (stereo not given), for which the cytotoxicity at 70.5 h worked out at 6.37%.
As for `CC(=O)N1C[C@H]2CNC[C@@]2(C(=O)NCCCOc2cccnc2)C1`, the figure is 20%; as for `CC[C@@]1(O)CCN(C(=O)c2ccoc2)C[C@H]1O`, -7.14%.
`CN(C1CCCN(c2ccccn2)C1)S(=O)(=O)N1CCOCC1` (stereo not given): the cytotoxicity at 70.5 h was -2.35%.
On to `COc1ccc(CN2CCC3(CC2)CCN(CC(C)C)C3=O)cc1`, for which the cytotoxicity at 70.5 h is -10.6%.
In the case of `Cc1cccc(CNC(=O)c2cccnc2N)c1`, the cytotoxicity at 70.5 h was found to be 18%.
As for `COC1CCN(c2ccc(NC(=O)C3CC3)cc2C(F)(F)F)CC1`, the figure is -4.49%; as for `O=C(Cc1ccsc1)N1CCN(CCOc2ccccc2)CC1`, -5.67%.
Turning to `COc1ccc(NC(=O)CCC(C)C)c(N2CCN(C(C)=O)CC2)n1`, the cytotoxicity at 70.5 h is -13.6%.
Take `Cc1nc(NC(=O)c2c(-n3cnnn3)sc3c2CCCC3)sc1C`: the cytotoxicity at 70.5 h is -10.4%.
`COCc1cn([C@@H]2c3ccccc3C3(CCNCC3)[C@H]2O)nn1`: the cytotoxicity at 70.5 h was -6.38%.
As for `CSc1ccsc1C(=O)NC(C)c1ccc2c(c1)CCC(=O)N2` (stereo not given), the figure is 11.2%; as for `COc1ccc(C(CC(=O)NCc2n[nH]c(N)n2)c2ccccc2)cc1` (stereo not given), -4.65%; as for `CCN(CC)c1ccc(C(=O)NCC2(C(N)=O)CCOCC2)cn1`, -4.92%.
Consider `Cc1cc(CCC(=O)O)nc(C2CCCN2c2ccnc(C)n2)n1` (stereo not given), for which the cytotoxicity at 70.5 h is -6.16%.
As for `CCN(CC)C(CNC(=O)CCc1nc(C(C)C)no1)c1ccco1` (stereo not given), the figure is -2.56%; as for `O=C(c1ccccc1)N1CC[C@H]2C[C@H](c3nccs3)O[C@@H]2C1`, -11.2%.
